This assay deals with psoriasis. The assay is described as follows: Case studies: clinical treatment of resistant psoriasis. The class given is in vivo, human. The note with it: Case No. 9; Methotrexate 5-10 mg per week from April 2001, Psorex stopped; summer to August 2001. The source says: The following case studies are presented to show results from clinical trials of the present invention on resistant cases of psoriasis, eczema and seborrhea.
A combination of Psorizide Ultra® and Psorex® was employed in some of these case studies. In others, a combination of Psorizide Ultra® and Fumaric Acid 1× was used. Psorizide Ultra® is a natural mineral homeopathic medication commercially available from Applicant's company, i.e. LOMA LUX Laboratories, 5801 E. 41st Street, Suite 200, Tulsa, Okla. 74135. This prescription drug includes active ingredients of nickel sulfate and potassium bromide.
Psorex® is a scientifically designed supplement containing reagent grade fumaric acid esters. This supplement is commercially available from Ecological Formulas at 1-800-888-4585. Each Psorex® capsule contains 120 mg fumaric acid ester.
Fumaric Acid 1×300 mg tablets are commercially available from B.H.I., 11600 Cochiti Road SE, Albuquerque, N.Mex. 87123-3376. Each Fumaric Acid 1× tablet contains approximately 30 mg of fumaric acid.
The patient is a person with a ten year history of psoriasis of the anogenital region. They had been treated with numerous topical lotions with only limited results. More recently they also developed left knee involvement and flaring of all disease sites due to surgery. They presented November 2000 complaining of itching. […]

`CN(Cc1cnc2nc(N)nc(N)c2n1)c1ccc(C(=O)N[C@@H](CCC(=O)O)C(=O)O)cc1` [Methotrexate®, Methotrexate]: the “clinical condition of plaque psoriasis” value is on record as “doing very well through the summer, but by August 2001 the psoriasis was worse”.

These data come from patent US6613800B1, “Method and compositions for treating psoriasis, eczema, seborrhea and arthritis” (priority 2001, dated 2003).
